Measurements published in PubChem BioAssay (NCI).
Values joined by “and” are separate entries in the source; they are usually repeats but may differ in a detail not shown here. Equal values may be shown once.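 Tested at 5 concentrations; 48 h exposure; 96-well plates; endpoints linearly interpolated, else capped at highest concentration. GI50 marks 50% less growth. TGI: concentration producing complete growth inhibition.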

Assays:
Experiment in all cases: DTP human tumour cell line panel, 48 h
[1] = tested on: M19-MEL melanoma
[2] = tested on: DMS 273 small cell lung
[3] = tested on: LXFL 529 NSCLC
[4] = tested on: DMS 114 small cell lung
[5] = tested on: XF 498 CNS
[6] = tested on: SNB-78 CNS
[7] = tested on: MDA-N
[8] = tested on: PC-3 prostate
[9] = tested on: RXF-631 renal

| Structure (SMILES) | TGI [1] [µM] | TGI [2] [µM] | TGI [3] [µM] | TGI [4] [µM] | TGI [5] [µM] | TGI [6] [µM] | TGI [7] [µM] | TGI [8] | GI50 [8] | TGI [9] [µM] |
| --- | --- | --- | --- | --- | --- | --- | --- | --- | --- | --- |
| c1ccc2c(c1)CCc1c(-c3ccncc3)n[nH]c1-2 | 72.8 | 52.1 | 66.2 | 51.7 | 22.5 | > 100 |  |  |  |  |
| O=S(=O)(OI(OI(OS(=O)(=O)C(F)(F)F)c1ccccc1)c1ccccc1)C(F)(F)F | > 100 | > 100 | > 100 | 55 |  | > 100 |  |  |  |  |
| COc1cc(OC)c(OC)cc1/C=N/NC(=O)N/N=C/c1cc(OC)c(OC)cc1OC | > 100 | > 100 | > 100 | > 100 | > 100 | > 100 |  |  |  |  |
| COC(=O)c1c(C)cc(OC)c(C/C=C(\C)CCCc2coc(C=C(C)C)c2)c1OC |  |  |  |  |  |  | > 100 | > 100 µM |  |  |
| COc1cc(C[P+](c2ccccc2)(c2ccccc2)c2ccccc2)cc(OC)c1OC | > 100 | > 100 | > 100 | > 100 | > 100 | > 100 |  |  |  |  |
| CCn1cc(-c2ccnc3[nH]c(-c4cccc(CN(C)C)c4)cc23)c(-c2ccc(NC(=O)N(C)C)cc2)n1 |  |  |  |  |  |  |  | 27 µM and > 10 µM | 1.46 µM and 3.02 µM |  |
| C=C(CN(C)Cc1ccccc1)c1ccc(NC(=O)c2ccc(C(=C)CN(C)Cc3ccccc3)cc2)cc1 |  |  |  |  |  |  |  | 23 µM | 11 µM |  |
| C[C@H](CCOc1cccc(CC(=O)O)c1)N(Cc1cccc(C(F)(F)F)c1Cl)CC(c1ccccc1)c1ccccc1 |  |  |  |  |  |  |  | 17.4 µM | 4.64 µM |  |
| CN(C)CCN1CCC(Cc2ccccc2)CC1 |  |  |  |  |  |  |  | > 80 µM | > 80 µM |  |
| COc1ccc(/C=C\c2cc(OC)c(OC)c(OC)c2)cc1OCC(=O)O | > 100 | 75.1 | > 100 | > 100 |  | > 100 | 13.5 | > 91.3 µM |  | > 100 |
| NC(=O)c1cc(I)ccc1NC(=O)/C=C/c1ccccc1 |  |  |  |  |  |  |  | > 100 µM | 0.605 µM |  |
| COc1nc(=O)n(C2C=CC(=O)O2)cc1F (stereo not given) |  |  |  |  |  |  |  | 62.4 µM | 19.8 µM |  |
| CCOC(=O)Nc1c(C)nc2ccccn12 |  |  |  |  |  |  |  | > 100 µM | > 100 µM |  |
| CCCCCCCCSC1=C(Cl)C(=O)C(OC)=C(OC)C1=O |  |  |  |  |  |  | 17.6 | 31.9 µM |  |  |
| O=C(O)c1ccc(CNCc2ccccc2)cc1 |  |  |  |  |  |  | > 100 | > 100 µM |  |  |
| O=c1[nH]c(O)c(C=Nc2ccc(-c3nc4ccccc4o3)cc2)c(=O)[nH]1 |  |  |  |  |  |  |  | > 100 µM | > 100 µM |  |
| CC[C@@H]1NC(C(=O)OC)Cc2c1[nH]c1ccccc21 (stereo not given in full) | > 100 | > 100 | > 100 | > 100 |  | > 100 |  |  |  | > 100 |
| CCOc1ccc(NC(=O)CC2SC(=Nc3ccc(C)cc3C)NC2=O)cc1 (stereo not given) | > 100 | > 100 | > 100 |  | > 100 | > 100 |  |  |  |  |
| O=Cc1cc2c(cc1-c1cc3c(cc1C=O)OCO3)OCO2 | > 100 | > 100 | > 100 | > 100 |  | > 100 |  |  |  |  |

| Structure (SMILES) | TGI [1] [µM] | TGI [2] [µM] | TGI [3] [µM] | TGI [4] [µM] | TGI [5] [µM] | TGI [6] [µM] | TGI [7] [µM] | TGI [8] | GI50 [8] | TGI [9] [µM] |
| --- | --- | --- | --- | --- | --- | --- | --- | --- | --- | --- |
| C=CC12CCN(CC1)C(C(O)c1ccnc3ccc(OC)cc13)C2 (stereo not given) |  |  |  |  |  |  |  | > 100 µM | > 100 µM |  |
| Cc1cc2c(cc1C)[n+](=O)cc(C(=O)C/C(=N/NC(=S)NN)C(=O)Nc1cccc(C(F)(F)F)c1)n2[O-] | > 100 | > 100 | > 100 | > 100 |  | > 100 |  |  |  | > 100 |
| O=C(c1ccc([N+](=O)[O-])cc1[N+](=O)[O-])N(/N=C/C=C/c1ccccc1)c1nnc(-c2ccccc2)c(-c2ccccc2)n1 | > 100 | 72.6 |  | > 100 | 42.3 |  |  |  |  |  |
| NNc1ncnc2nc[nH]c12 |  |  |  |  |  |  |  | > 100 µM | 6.07 µM |  |
| CC12c3ccccc3C(OC=O)(c3ccccc31)C1(C)c3ccccc3C2(OC=O)c2ccccc21 | > 100 | > 100 | > 100 | > 100 |  | > 100 |  |  |  | > 100 |
| Cc1nc2c(N)ncnc2o1 | > 100 | > 100 | > 100 | > 100 |  | > 100 |  |  |  | > 100 |
| COC(=N)c1csc(C2OC(CO)C(O)C2O)n1 (stereo not given) | > 100 | > 100 | > 100 | > 100 | > 100 | > 100 |  |  |  | > 100 |
| O=C(Nc1nc(-c2c[nH]c3ccccc23)cs1)c1n[nH]c(=O)c2ccccc12 |  |  |  |  |  |  |  | > 100 µM | 10.2 µM |  |
| COC(=O)C1=CN(CC2=CC(=O)C(C)=CC2=O)C=C(C(=O)OC)C1c1ccccc1OC |  |  |  |  |  |  |  | 29.8 µM | 14.9 µM |  |
| CCOc1ccc(OCC(=O)O)c2c1CCCC2=O | > 100 | > 100 | > 100 | > 100 | > 100 | > 100 |  |  |  | > 100 |
| CCSc1nc(N=Cc2ccccc2O)c2cn[nH]c2n1 |  |  |  |  |  |  |  | 72.7 µM | 28 µM |  |
| NCCCn1c2c(c3ccc([N+](=O)[O-])cc3c1=O)C(=O)c1cc(I)ccc1-2 |  |  |  |  |  |  |  | 2.07 µM | 0.563 µM |  |
| Cc1nc2c(Br)cc(Br)cc2c(=O)n1-c1nnc(-c2cccc(Cl)c2Cl)c(N)n1 |  |  |  |  |  |  |  | > 100 µM | 23.6 µM |  |
| O=[N+]([O-])c1cccnc1N=Nc1c(O)[nH]c2ccccc12 |  |  |  |  |  |  | > 100 | 63 µM |  |  |
| O=C1C=C(Nc2ccc(Cl)cc2C(=O)c2ccccc2)c2ccccc2C1=O |  | > 100 | > 100 | > 100 | > 100 | > 100 |  |  |  | > 100 |
| COc1cc2c3c(n(C)c(=O)c2cc1OC)-c1cc2c(cc1C3=O)OCO2 |  |  |  |  |  |  | > 100 | > 100 µM |  |  |
| CC(=O)N/C(=C\c1ccccc1/C=C(\NC(C)=O)c1nc2cc(C)c(C)cc2[nH]1)c1nc2cc(C)c(C)cc2[nH]1 | 85.8 | 47.6 | 30.8 | 11.2 | 32.9 | > 100 |  |  |  |  |
